# Key:
# Assay in all cases: relative viability (nuclei count vs DMSO), 5 days (fraction); higher = more cells survive
# Dasatinib + Tozasertib = compound: Cc1nc(Nc2ncc(C(=O)Nc3c(C)cccc3Cl)s2)cc(N2CCN(CCO)CC2)n1 [Dasatinib] + Cc1cc(Nc2cc(N3CCN(C)CC3)nc(Sc3ccc(NC(=O)C4CC4)cc3)n2)n[nH]1 [Tozasertib] (partner 0.1 µM)
# Procedure, shortened: (§1)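 Relative viability equals treated-well nuclei counts divided by vehicle-well nuclei counts. Counts came from 4× images of lung cancer cell lines grown in 1536-well plates for 5 days after pin-tool dosing on the day after seeding. Dosing used one drug alone or a fixed anchor-drug dose plus five library-drug doses (not always all listed) in √10 steps, and values are medians of duplicate plates.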
# ALW-II-49-7 + Olaparib = compound: Cc1ccc(C(=O)Nc2cccc(C(F)(F)F)c2)cc1Nc1cncc(C(N)=O)c1 [ALW-II-49-7] + O=C(c1cc(Cc2n[nH]c(=O)c3ccccc23)ccc1F)N1CCN(C(=O)C2CC2)CC1 [Olaparib] (partner 8 µM)
# Procedure, shortened: as §1
# Dasatinib + Bortezomib = compound: Cc1nc(Nc2ncc(C(=O)Nc3c(C)cccc3Cl)s2)cc(N2CCN(CCO)CC2)n1 [Dasatinib] + CC(C)C[C@H](NC(=O)[C@H](Cc1ccccc1)NC(=O)c1cnccn1)B(O)O [Bortezomib] (partner 0.002 µM)
# Procedure, shortened: as §1
# ALW-II-49-7 + Tozasertib = compound: Cc1ccc(C(=O)Nc2cccc(C(F)(F)F)c2)cc1Nc1cncc(C(N)=O)c1 [ALW-II-49-7] + Cc1cc(Nc2cc(N3CCN(C)CC3)nc(Sc3ccc(NC(=O)C4CC4)cc3)n2)n[nH]1 [Tozasertib] (partner 0.1 µM)
# Procedure, shortened: as §1
Cell Line,relative viability (Dasatinib + Tozasertib; first compound 0.005 µM),relative viability (Dasatinib + Tozasertib; first compound 0.01581 µM),relative viability (Dasatinib + Tozasertib; first compound 0.05 µM),relative viability (Dasatinib + Tozasertib; first compound 0.1581 µM),relative viability (Dasatinib + Tozasertib; first compound 0.5 µM),relative viability (ALW-II-49-7 + Olaparib; first compound 0.08 µM),relative viability (ALW-II-49-7 + Olaparib; first compound 0.253 µM),relative viability (ALW-II-49-7 + Olaparib; first compound 0.8 µM),relative viability (ALW-II-49-7 + Olaparib; first compound 2.53 µM),relative viability (ALW-II-49-7 + Olaparib; first compound 8 µM),relative viability (Dasatinib + Bortezomib; first compound 0.005 µM),relative viability (Dasatinib + Bortezomib; first compound 0.01581 µM),relative viability (Dasatinib + Bortezomib; first compound 0.05 µM),relative viability (Dasatinib + Bortezomib; first compound 0.1581 µM),relative viability (Dasatinib + Bortezomib; first compound 0.5 µM),relative viability (ALW-II-49-7 + Tozasertib; first compound 0.08 µM),relative viability (ALW-II-49-7 + Tozasertib; first compound 0.253 µM),relative viability (ALW-II-49-7 + Tozasertib; first compound 0.8 µM),relative viability (ALW-II-49-7 + Tozasertib; first compound 2.53 µM),relative viability (ALW-II-49-7 + Tozasertib; first compound 8 µM)
HARA,0.119,0.133,0.0917,0.0528,0.0523,0.556,0.584,0.551,0.626,1.07,1.19,0.881,0.897,0.501,0.184,0.0918,0.121,0.114,0.0912,0.0839
NCI-H650,0.705,0.665,0.755,0.619,0.42,0.42,0.388,0.416,0.351,0.304,0.867,0.939,0.73,0.559,0.451,0.719,0.737,0.673,0.577,0.481
NCI-H1975,0.692,0.677,0.648,0.377,0.245,0.739,0.845,0.793,0.682,0.683,0.393,0.279,0.348,0.212,0.22,0.743,1.05,0.667,0.508,0.243
NCI-H2085,0.737,0.641,0.564,0.229,0.214,0.701,0.776,0.756,0.844,0.763,1.09,0.958,0.86,0.397,0.262,0.753,0.895,0.787,0.743,0.568
NCI-H3122,0.38,0.388,0.414,0.373,0.292,0.636,0.657,0.642,0.705,0.537,0.988,0.94,1.02,1.05,0.815,0.437,0.202,0.371,–,0.373
NCI-H1651,0.679,0.611,0.724,0.522,0.656,0.15,0.176,0.176,0.169,0.171,0.947,0.873,0.795,0.859,0.825,0.608,0.852,0.543,0.566,0.377
NCI-H441,0.594,0.539,0.625,0.467,0.375,0.592,0.52,0.592,0.47,0.383,0.487,0.613,0.511,0.734,0.172,0.709,0.512,0.751,0.54,0.478
ABC-1,0.174,0.217,0.172,0.15,0.154,0.636,0.828,0.744,0.838,0.921,0.295,0.303,0.247,0.269,0.351,0.172,0.179,0.162,0.197,0.191
NCI-H2126,0.832,0.732,0.773,0.654,0.348,0.823,0.882,0.979,0.891,0.87,1.08,1.07,1.16,0.988,0.587,0.856,0.885,0.826,0.197,0.786
RERF-LC-KJ,0.52,0.511,0.44,0.487,0.406,0.988,1.06,0.874,0.856,0.725,1.1,0.765,0.965,0.955,0.77,0.442,0.524,0.461,0.506,0.321
NCI-H1666,0.632,0.616,0.67,0.565,0.309,0.692,0.798,0.684,0.738,0.728,0.763,0.663,0.718,0.582,0.288,0.609,0.603,0.569,0.612,0.498
PC-14,0.54,0.583,0.514,0.667,0.227,0.282,0.227,0.264,0.253,0.273,0.822,0.96,0.969,0.585,0.35,0.584,0.657,0.503,0.288,0.492
NCI-H1915,0.435,0.372,0.301,0.173,0.157,0.243,0.275,0.224,0.211,0.398,0.982,0.809,0.876,0.593,0.298,0.398,0.457,0.42,0.341,0.277
NCI-H661,0.348,0.34,0.324,0.323,0.295,0.736,0.85,0.762,0.801,0.733,0.62,0.415,0.557,0.319,0.24,0.388,0.369,0.341,0.362,0.337
HCC-78,0.47,0.371,0.395,0.242,0.181,1.02,0.77,0.767,0.625,0.738,0.419,0.381,0.463,0.385,0.225,0.482,0.396,–,0.43,0.505
PC-3 [JPC-3],0.895,0.859,0.976,0.799,0.579,0.693,1.2,1.24,1.05,1,0.839,0.733,0.925,0.818,0.465,0.653,0.946,0.867,0.776,0.843
LCLC-103H,0.485,0.461,0.453,0.3,0.129,0.724,0.79,0.771,0.714,0.762,0.987,1.06,1,0.918,0.613,0.451,0.453,0.486,0.451,0.389
EKVX,0.372,0.279,0.303,0.214,0.119,0.77,0.847,0.823,0.374,0.855,0.929,0.807,0.87,0.501,0.146,0.323,0.413,0.344,0.322,0.381
NCI-H460,0.299,0.425,0.302,0.338,0.177,0.435,0.704,0.414,0.143,0.325,0.97,0.79,0.701,0.736,0.49,0.354,0.597,0.421,0.273,0.0328
NCI-H727,0.607,0.523,0.606,0.379,0.185,0.663,0.843,0.603,0.501,0.597,0.606,0.663,0.554,0.463,0.258,0.599,0.647,0.642,0.687,0.538
NCI-H838,0.279,0.292,0.245,0.179,0.2,0.715,0.744,0.881,0.844,0.7,0.747,0.395,0.445,0.198,0.202,0.245,0.274,0.264,0.259,0.265
H3255,0.721,0.543,0.463,0.547,0.322,0.516,0.549,0.492,0.537,0.477,0.795,0.749,0.623,0.504,0.299,0.724,0.613,0.675,0.625,0.42
EPLC-272H,0.254,0.282,0.222,0.137,0.122,0.609,0.468,0.506,0.711,0.64,0.921,0.89,0.808,0.864,0.429,0.127,–,0.257,0.298,0.27
NCI-H647,0.265,0.288,0.128,0.0973,0.0474,0.619,0.386,0.636,0.51,0.367,0.547,0.593,0.447,0.257,0.189,0.37,0.409,0.204,0.181,0.177
LXF-289,0.193,0.0886,0.0932,0.0636,0.0438,1.02,0.909,1.09,1.26,1.09,1.03,1.12,0.93,0.518,0.204,0.187,0.194,0.168,0.184,0.182
NCI-H1650,0.356,0.302,0.342,0.233,0.153,0.71,0.602,0.749,0.905,0.969,0.227,0.195,0.193,0.217,0.2,0.364,0.437,0.374,0.313,0.293
NCI-H1755,0.584,0.532,0.516,0.312,0.21,0.888,0.942,0.913,0.798,0.627,0.842,0.759,0.645,0.538,0.297,0.654,0.558,0.463,0.483,0.466

# — the supplement of paper PMC10307832
